Assay results from US7321027B2, “Small technetium-99m and rhenium labeled agents and methods for imaging tumors” (President and Fellows of Harvard College, priority 2000, dated 2008).

How the values were obtained:
B16/F0 murine melanoma = assay: In-vivo tumor uptake and biodistribution; parameters: species or system C57B16 mice
Experimental: In-Vivo Tumor Uptake. To study the tumor uptake of ^99mTc-complexes, Tc-(Compound A-D and J-K), in vivo, biodistribution experiments at 1 h and 6 h after their administration were carried out in C57B16 mice with palpable B16 melanoma nodules. The biodistribution data including melanoma/nontumor (M/NT) ratios for selected organs are summarized in Table 4 and 5 as percentage injected dose per gram ([…]).
Animal Studies. All animal experiments were performed in compliance with the Principles of Laboratory Animal Care (NIH publication #85-23, revised 1985). Biodistribution studies and tumor-uptake measurements were performed in C57B16 mice (15 to 20 g) bearing the B16/F0 murine melanoma on the hind limb. See for example the studies described in, which are hereby incorporated by reference, Brandau, W.; Niehoff, T.; Pulawski, P.; Jonas, M.; Dutschka, K.; Sciuk, J.; Coenen, H. H.; Schober, O. Structure Distribution Relationship of Iodine-123-Iodobenzamides as Tracers for the Detection of Melanotic Melanoma. J. Nucl. Med. 1996, 37, 1865-1871; Mohanmmed, A.; Nicholl, C.; Titsch, U.; Eisenhut, M. Radiojodinated N-(Alkylaminoalkyl)-Substituted 4-Methoxy-, 4-Hydroxy-, and 4-Aminobenzamides: Biological Investigations for the Improvement of Melanoma-Imaging Agents. Nucl. Med. Biol. 1997, 24, 373-380; Titsch, U.; Mohammed, A.; Wagner, S.; Oberdorfer, F.; Eisenhut, M. Syntheses of N-(2-Diethylaminoethyl)benzamides Suitable for ^99mTc Complexation. J. Labelled Compd. Radiopharm. 1997, 40, 416-418; Dittmann, H.; Coenen, H. H.; Zölzer, F.; Dutschka, K.; Brandau, W.; Streffer, C. In Vitro Studies on the Cellular Uptake of Melanoma Imaging Aminoalkyl-iodobenzamide Derivatives (ABA). Nucl. Med. Biol. 1999, 26, 51-56; and Michelot, J. M.; Moreau, M. F. C.; Veyre, A. J.; Bonafous, J. F.; Bacin, F. J.; Madelmont, J. C.; Bussiere, F.; Souteyrand, P. A.; Mauclaire, L. P.; Chossat, F. M.; Papon, J. M.; Labarre, P. G.; Kauffmann, Ph.; Plagne, R. J. Phase II Scintigraphic Clinical Trial of Malignant Melanoma and Metastases with Iodine-123-N-(2-Diethylaminoethyl 4-Iodobenzamide). J. Nucl. Med. 1993, 34, 1260-1266. The tumor cells (B16/F0), obtained from ATCC, were washed with PBS and transplanted subcutaneously on the left hind flank by an inoculation of 0.5×10^6 cells (0.1 mL). Ten to 14 days later the animals developed palpable tumor nodules 3 to 5 mm in diameter. The biodistribution studies were carried out by tail-vein injection of 25 to 30 μCi (0.05 to 0.1 mL) of the ^99mTc-labeled complexes Tc-(Compound A-D, H, J, K or M). At the designated time after tail-vein administration, the animals were weighed and sacrificed. The organs and tumors were harvested and, when appropriate, blotted dry, weighed, and counted in a gamma counter along with technetium-99m standards of the injected dose. The results are expressed as % ID/g tissue (Table 4 and 5)

[1] = tested on: B16/F0 murine melanoma cells; assay: In-vitro tumor-cell uptake, melanoma cells; type: cell-based; conditions: for % active: active part of in-vitro uptake, 37° C. vs 4° C.
Experimental: In-Vitro Tumor-Uptake Studies. Tumor-cell uptake studies in B16/F0 murine melanoma cells were performed with complexes Tc-(Compound A-D and H-M) at 37° C. and 4° C. Additionally, tumor-cell uptake of complex Tc-(Compound A) was investigated in another rapidly dividing MCF-7 human breast cancer cell line.
In-Vitro Cell Studies. Murine B16/F0 melanoma cells and human MCF-7 breast cancer cells were obtained from American Type Culture Collection, Manassas Va., (ATCC) and were grown in T-175 flasks in 14 mL Dulbecco's Modified Eagle Medium (D-MEM; Gibco, Life Technology, Gaithersburg, Md.) containing 4500 mg/L D-glucose, L-glutamine, and pyridoxine hydrochloride, 110 mg/L sodium pyruvate, 10% fetal bovine serum (FBS), 0.2% gentamicin and 0.5% penicillin-streptomycin solution. All cells were harvested from cell culture flasks by trypsinization with 1 mL trypsin-EDTA solution (0.25% trypsin, 1 mM EDTA×4 Na) (Gibco). After being washed with 12 mL Dulbecco's Phosphate-Buffered Saline (PBS) (Gibco), pH 7.2 (Ca^2+- and Mg^2+-free; g/L KCl, 0.20; KH2PO4, 0.20; NaCl, 8.00; Na2HPO4, 1.15), the cells were counted and resuspended in 8 mL S-MEM (Gibco) (Ca^2+ free, with reduced Mg^2+ content) and stored at 4° C. until use.
For in-vitro tumor-cell accumulation studies, 5×10^6 cells in polypropylene test tubes were incubated at 37° C. or 4° C., with intermittent agitation with 1-2 μCi (5 μL) ^99mTc-complex Tc-(Compound A-D) in a total volume of 350 μL S-MEM. At appropriate time intervals the tubes were vortexed and 8-μL samples were layered on 350 μL cold FBS in a 400-μL Eppendorf microcentrifuge tube. After centrifugation at 15,000 rpm for 2 min, the tubes were frozen in a dry ice-acetone bath. While still frozen, the bottom tip of the microcentrifuge tube containing the cell pellet was cut and placed in a counting tube. The remaining portion of the tube with the supernatant was placed in a separate counting tube. Both fractions were counted for radioactivity in a γ-counter (WALLAC, 1480 WIZARD 3″™). The amount of supernatant in the cell pellet was determined to be <1% in separate experiments. The percentage cell uptake of the ^99mTc-complex was calculated as: % uptake=[cpm(pellet)]/[cpm(pellet)+cpm(supernatant)]×100

CCN(CC)CCN(CCSC(c1ccccc1)(c1ccccc1)c1ccccc1)CC(=O)NCCSC(c1ccccc1)(c1ccccc1)c1ccccc1 [Compound A, N-[(2-diethylaminoethyl)-N-(2-(2-(S-(triphenyl-methyl)thio)ethyl)amino)acetyl]-S-(triphenylmethyl)-2-aminoethane-thiol]
In-vivo M/Blood (B16/F0 murine melanoma; mouse, in vivo): 7.6 | In-vivo M/Lung (B16/F0 murine melanoma; mouse, in vivo): 5.4 | In-vivo M/Spleen (B16/F0 murine melanoma; mouse, in vivo): 4.2 | % Tumor uptake (In-vitro, 60 min) 4° C. [1]: 33 ± 2.4% | % Tumor uptake (In-vitro, 60 min) 37° C. [1]: 44 ± 1.6% | % active [1]: 25%

CCCCN(CCCC)CCN(CCSC(c1ccccc1)(c1ccccc1)c1ccccc1)CC(=O)NCCSC(c1ccccc1)(c1ccccc1)c1ccccc1 [Compound B, N-[(2-dibutylaminoethyl)-N-(2-(2-(S-(triphenylmethyl)thio)ethyl)amino)-acetyl]-S-(triphenylmethyl)-2-aminoethanethiol]
In-vivo M/Blood (B16/F0 murine melanoma; mouse, in vivo): 7.6 | In-vivo M/Lung (B16/F0 murine melanoma; mouse, in vivo): 2.1 | In-vivo M/Spleen (B16/F0 murine melanoma; mouse, in vivo): 4.0 | % Tumor uptake (In-vitro, 60 min) 4° C. [1]: 16 ± 1.3% | % Tumor uptake (In-vitro, 60 min) 37° C. [1]: 8 ± 1.9%

CCN(CC)CCCN(CCSC(c1ccccc1)(c1ccccc1)c1ccccc1)CC(=O)NCCSC(c1ccccc1)(c1ccccc1)c1ccccc1 [Compound C, N-[(3-diethylaminopropyl)-N-(2-(2-(S-(triphenylmethyl)thio)ethyl)amino)-acetyl]-S-(triphenylmethyl)-2-aminoethanethiol]
In-vivo M/Blood (B16/F0 murine melanoma; mouse, in vivo): 7.7 | In-vivo M/Lung (B16/F0 murine melanoma; mouse, in vivo): 2.4 | In-vivo M/Spleen (B16/F0 murine melanoma; mouse, in vivo): 3.0 | % Tumor uptake (In-vitro, 60 min) 4° C. [1]: 17 ± 1.5% | % Tumor uptake (In-vitro, 60 min) 37° C. [1]: 62 ± 0.8% | % active [1]: 73%

CCCCN(CCCC)CCCN(CCSC(c1ccccc1)(c1ccccc1)c1ccccc1)CC(=O)NCCSC(c1ccccc1)(c1ccccc1)c1ccccc1 [Compound D, N-[(3-dibutylaminopropyl)-N-(2-(2-(S-(triphenylmethyl)thio)ethyl)amino)-acetyl]-S-(triphenylmethyl)-2-aminoethanethiol]
In-vivo M/Blood (B16/F0 murine melanoma; mouse, in vivo): 4.3 | In-vivo M/Lung (B16/F0 murine melanoma; mouse, in vivo): 1.5 | In-vivo M/Spleen (B16/F0 murine melanoma; mouse, in vivo): 1.4 | % Tumor uptake (In-vitro, 60 min) 4° C. [1]: 56 ± 2.7% | % Tumor uptake (In-vitro, 60 min) 37° C. [1]: 68 ± 2.3% | % active [1]: 18%

CCN(CC)CCNC(=O)c1ccc(I)cc1 [IBZA, reference compound]
In-vivo Tumor uptake, Melanoma (B16/F0 murine melanoma; 60 min): 5.5 % I.D./g | In-vivo M/Blood (B16/F0 murine melanoma; melanoma/blood ratio, 60 min): 8 | In-vivo M/Lung (B16/F0 murine melanoma; melanoma/lung ratio, 60 min): <1 | In-vivo M/Spleen (B16/F0 murine melanoma; melanoma/spleen ratio, 60 min): 1 | % Tumor uptake (In-vitro, 60 min) 4° C. [1]: 28 ± 1.4% | % Tumor uptake (In-vitro, 60 min) 37° C. [1]: 26 ± 1.4%

O=C1CN(CCN2CCCCC2)CC[S][99Tc]2(=[O])[S]CC[N]12 (stereo not shown) [^99mTc-Compound J]
biodistribution blood (B16/F0 murine melanoma; 1 h post-injection): 2.26 % ID/g | biodistribution brain (B16/F0 murine melanoma; 1 h post-injection): 0.52 % ID/g | biodistribution heart (B16/F0 murine melanoma; 1 h post-injection): 0.91 % ID/g | biodistribution kidney (B16/F0 murine melanoma; 1 h post-injection): 4.26 % ID/g | biodistribution liver (B16/F0 murine melanoma; 1 h post-injection): 14.9 % ID/g | biodistribution lung (B16/F0 murine melanoma; 1 h post-injection): 2.50 % ID/g | biodistribution melanoma (B16/F0 murine melanoma; 1 h post-injection): 5.26 % ID/g | biodistribution muscle (B16/F0 murine melanoma; 1 h post-injection): 0.42 % ID/g | biodistribution spleen (B16/F0 murine melanoma; 1 h post-injection): 3.28 % ID/g | mel/blood ratio (B16/F0 murine melanoma; 1 h post-injection): 2.3 | mel/liver ratio (B16/F0 murine melanoma; 1 h post-injection): <1 | mel/lung ratio (B16/F0 murine melanoma; 1 h post-injection): 2.1 | mel/spleen ratio (B16/F0 murine melanoma; 1 h post-injection): 1.6 | biodistribution blood (B16/F0 murine melanoma; 6 h post-injection): 0.20 % ID/g | biodistribution brain (B16/F0 murine melanoma; 6 h post-injection): 0.05 % ID/g | biodistribution heart (B16/F0 murine melanoma; 6 h post-injection): 0.26 % ID/g | biodistribution kidney (B16/F0 murine melanoma; 6 h post-injection): 2.31 % ID/g | biodistribution liver (B16/F0 murine melanoma; 6 h post-injection): 4.62 % ID/g | biodistribution lung (B16/F0 murine melanoma; 6 h post-injection): 0.31 % ID/g | biodistribution melanoma (B16/F0 murine melanoma; 6 h post-injection): 3.33 % ID/g | biodistribution muscle (B16/F0 murine melanoma; 6 h post-injection): 0.15 % ID/g | biodistribution spleen (B16/F0 murine melanoma; 6 h post-injection): 0.20 % ID/g | mel/blood ratio (B16/F0 murine melanoma; 6 h post-injection): 16.7 | mel/liver ratio (B16/F0 murine melanoma; 6 h post-injection): <1 | mel/lung ratio (B16/F0 murine melanoma; 6 h post-injection): 10.7 | mel/spleen ratio (B16/F0 murine melanoma; 6 h post-injection): 16.7
